In patent US20230120597A1, “CO-AGONISTS AT GLP-1 AND GIP RECEPTORS SUITABLE FOR ORAL DELIVERY” (Novo Nordisk A/S, priority 2020, published 2023):
Like-named read-outs stand apart in the source and are kept apart here. Starred links: 1 amine or outer side, 2 acyl side, 3 side chain; linkers in the order of their positions; H or OH if unused. Non-standard residues stand in square brackets, D forms with d. Residues, ends and D or L forms follow the SMILES beside them. Groups on a side chain read outwards from the residue. *: point of attachment. C18 diacid = O=C(O)CCCCCCCCCCCCCCCCC(=O)*; γGlu = O=C(O)[C@H](CCC(=O)[*:2])N[*:1]; εLys = N[C@@H](CCCCN[*:1])C(=O)[*:2]; Aib = CC(C)(N)C(=O)O

Tests used:
human GIP receptor = biological target: T1, human GIP receptor (Homo sapiens, UniProt P48546); assay: In vitro functional potency, CRE luciferase reporter gene assay, whole BHK cells expressing hGIPR; format: cell-based; details: BHK CRE luc2P hGIPR cells
T1 construct: expressed in transfected cells; host or cells: BHK (parent line BHKTS13), clone BHK CRE luc2P hGIPR
T1 sequence (P48546 22-466): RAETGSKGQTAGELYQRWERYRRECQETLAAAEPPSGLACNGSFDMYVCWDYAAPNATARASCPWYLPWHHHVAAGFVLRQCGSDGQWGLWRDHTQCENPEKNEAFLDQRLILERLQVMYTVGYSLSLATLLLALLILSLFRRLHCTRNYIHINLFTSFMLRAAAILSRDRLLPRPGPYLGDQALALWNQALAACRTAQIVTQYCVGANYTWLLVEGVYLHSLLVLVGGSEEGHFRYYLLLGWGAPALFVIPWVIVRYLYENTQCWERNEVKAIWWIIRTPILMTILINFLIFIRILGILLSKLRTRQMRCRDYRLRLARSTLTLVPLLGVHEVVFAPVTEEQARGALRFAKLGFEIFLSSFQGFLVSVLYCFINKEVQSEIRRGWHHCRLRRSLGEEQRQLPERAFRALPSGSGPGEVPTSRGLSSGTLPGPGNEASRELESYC

[1] = Pharmacokinetic study in minipigs after i.v. administration; details: female, Gottingen, minipig, in vivo, iv
Procedure: The purpose of this example is to determine the half-life in vivo of the derivatives of the present invention after i.v. administration to minipigs, i.e. the prolongation of their time in the body and thereby their time of action. This is done in a pharmacokinetic (PK) study, where the terminal half-life of the derivative in question is determined. By terminal half-life is generally meant the period of time it takes to halve a certain plasma concentration, measured after the initial distribution phase.
Female Gottingen minipigs were obtained from Ellegaard Gottingen Minipigs (Dalmose, Denmark) approximately 7-14 months of age and weighing from approximately 16-35 kg were used in the studies. The minipigs were housed individually and fed restrictedly once daily with SDS minipig diet (Special Diets Services, Essex, UK).
After at 3 weeks of acclimatisation two permanent central venous catheters were implanted in vena cava caudalis in each animal. […]
Plasma was pipetted into Micronic tubes on dry ice and kept at −20° C. until analysed for plasma concentration of the compounds using ELISA, or a similar antibody-based assay, or LCMS. Individual plasma concentration-time profiles were analysed by a non-compartmental model in Phoenix WinNonLin ver. […] (Pharsight Inc., Mountain View, Calif., USA), and the resulting terminal half-lives (harmonic mean) determined.

Work on `CC[C@H](C)[C@H](NC(=O)[C@H](Cc1ccccc1)NC(=O)[C@H](CCC(=O)O)NC(=O)[C@H](CCCNC(=N)N)NC(=O)[C@H](C)NC(=O)[C@H](C)NC(=O)[C@H](CCC(N)=O)NC(=O)[C@H](CCCCNC(=O)[C@@H](N)CCCCNC(=O)[C@@H](N)CCCCNC(=O)CC[C@H](NC(=O)CCCCCCCCCCCCCCCCC(=O)O)C(=O)O)NC(=O)[C@H](CCC(=O)O)NC(=O)[C@H](CC(C)C)NC(=O)[C@H](CC(C)C)NC(=O)[C@@H](NC(=O)[C@H](CO)NC(=O)[C@H](Cc1ccc(O)cc1)NC(=O)[C@H](CC(=O)O)NC(=O)[C@H](CO)NC(=O)[C@@H](NC(=O)[C@H](Cc1ccccc1)NC(=O)[C@@H](NC(=O)CNC(=O)[C@H](CCC(=O)O)NC(=O)C(C)(C)NC(=O)[C@@H](N)Cc1ccc(O)cc1)[C@@H](C)O)[C@@H](C)O)[C@@H](C)CC)C(=O)N[C@@H](CC(N)=O)C(=O)N[C@@H](Cc1c[nH]c2ccccc12)C(=O)N[C@@H](CC(C)C)C(=O)N[C@@H](CC(C)C)C(=O)N[C@@H](C)C(=O)NCC(=O)NCC(=O)N1CCC[C@H]1C(=O)N[C@@H](CO)C(=O)N[C@@H](CO)C(=O)NCC(=O)N[C@@H](C)C(=O)N1CCC[C@H]1C(=O)N1CCC[C@H]1C(=O)N1CCC[C@H]1C(=O)N[C@@H](CO)C(=O)O` [Compound No. 15] (H-Y[Aib]EGTFTSDYSILLEK([εLys-εLys-γGlu-C18 diacid])QAAREFINWLLAGGPSSGAPPPS-OH) yielded an EC50 (human GIP receptor; 0% HSA, read-out: hGIPR, CRE Luc 0% HSA EC50) of 0.0071 nM, an EC50 (human GIP receptor; hGIPR, CRE Luc 1% HSA EC50, 1% HSA) of 0.138 nM and a half-life [1] of 2160 min.
